Laboratory results: patent US20150368248A1, “2-SUBSTITUTED-6-BIARYLMETHYLAMINO-9-CYCLOPENTYL-9H-PURINE DERIVATIVES, USE THEREOF AS MEDICAMENTS, AND PHARMACEUTICAL COMPOSITIONS” (UNIVERZITA PALACKEHO V OLOMOUCI, priority 2013, published 2015)

What was measured:
[1] = test system: caspase-3/7 activity in Hep3B cell line; assay: One-step cellular caspase-3/7 activity assay; assay type: cell-based, human; conditions: 24 hours, 0 nM = 1.00
Procedure, shortened: (§1)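 Hep3B or PLC/PRF/5 cells, plated overnight, were exposed to compounds for 24 h. Lysis buffer containing 150 μM Ac-DEVD-AMC substrate was added, and plates were incubated at 37° C. Caspase-3/7 activity was read as AMC fluorescence (ex 346/em 442 nm) after 6 h.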

[2] = test system: caspase-3/7 activity in PLC/PRF/5 cell line; assay: One-step cellular caspase-3/7 activity assay; assay type: cell-based, human; conditions: 24 hours incubation, relative to 0 nM = 1.00
Procedure, shortened: as §1

[3] = test system: p53-regulated transcription in Arn8 cells; assay: p53-dependent transcriptional activity, β-galactosidase reporter; assay type: cell-based; conditions: 24 h incubation
Procedure, shortened: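 Arn8 melanoma cells stably carrying the p53-responsive pRGCAfoslacZ reporter, exposed to compounds for 24 h. Cells permeabilised with 0.3% Triton X-100 for 15 min, then given 80 μM 4-methylumbelliferyl-β-D-galactopyranoside. β-Galactosidase product fluorescence read after 1 h at 355/460 nm.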

HepG2 = assay: MTT cytotoxicity assay (Example 30); assay type: cell-based; conditions: Homo sapiens, HepG2, 72 h; MTT, three days after drug addition; read-out: Inhibitory concentration IC50, HepG2
Procedure, shortened: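 HepG2 cells in EMEM with 10% FBS, seeded at 10000 per well, dosed next day in triplicate at various concentrations. Three days later MTT added for 4 h; formazan dissolved in DMSO and absorbance read at 570 nm.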

CDK1/cyclin B = biological target: T1, CDK1/cyclin B (Homo sapiens, UniProt P06493); assay: Kinase inhibition assay, recombinant kinase, [γ-33P]ATP; assay type: biochemical; conditions: read-out: Kinase inhibition IC50, CDK1
T1 construct: made in house; host or cells: Sf9 insect cells (baculovirus)
Method: CDK2/Cyclin E kinase was produced in Sf9 insect cells via baculoviral infection and purified on a NiNTA column (Qiagen). CDK5/p35, CDK7Cyclin H/MAT1 and CDK9/Cyclin T1 was purchased from ProQinase GmbH. […] The reactions were stopped by adding 5 μL of 3% aq H3PO4. Aliquots were spotted onto P-81 phosphocellulose (Whatman), washed 3× with 0.5% aq H3PO4 and finally air-dried.
CDK1/cyclin B and CDK2/cyclin E kinases were produced in Sf9 insect cells via baculoviral infection, while CDK5/p35, CDK7/cyclin H/MAT1, and CDK9/cyclin T1 were purchased from ProQinase (Freiburg, Germany) and assayed as described previously (35). The kinase reactions were assayed with 1 mg/ml histone H1 (for CDK2 and CDK5) or (YSPTSPS)2KK peptide (for CDK7 and CDK9) in the presence of 15/0.15/1.5/1.5 […] ATP (for CDK2/CDK5/CDK7CDK9), […] [γ-^33P]ATP and of the test compound in a final volume of […]. The reaction buffer contained 60 mM HEPES-NaOH, pH 7.5, 3 mM MgCl2, 3 mM MnCl2, 3 mM Na-orthovanadate, 1.2 mM DTT, 2.5 mg/50 ml PEG20.000. The reactions were stopped by adding […] of 3% H3PO4. Aliquots were spotted onto P-81 phosphocellulose (Whatman, GE Healthcare Biosciences, Pittsburgh, USA), washed 3 times with 0.5% H3PO4 and finally air-dried. Kinase inhibition was quantified using a FLA-7000 digital image analyzer (Fujifilm, Tokyo, Japan).

T1 sequence (P06493 whole entry, species assumed): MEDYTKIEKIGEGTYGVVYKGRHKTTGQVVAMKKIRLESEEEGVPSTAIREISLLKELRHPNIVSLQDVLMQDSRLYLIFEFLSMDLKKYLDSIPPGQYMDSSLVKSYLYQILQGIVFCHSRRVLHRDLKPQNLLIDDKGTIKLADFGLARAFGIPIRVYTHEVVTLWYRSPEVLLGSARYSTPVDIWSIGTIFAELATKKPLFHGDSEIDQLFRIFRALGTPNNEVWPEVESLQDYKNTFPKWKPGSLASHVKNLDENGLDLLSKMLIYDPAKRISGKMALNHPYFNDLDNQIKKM
T1 sequence (P14635 whole entry partner, species assumed): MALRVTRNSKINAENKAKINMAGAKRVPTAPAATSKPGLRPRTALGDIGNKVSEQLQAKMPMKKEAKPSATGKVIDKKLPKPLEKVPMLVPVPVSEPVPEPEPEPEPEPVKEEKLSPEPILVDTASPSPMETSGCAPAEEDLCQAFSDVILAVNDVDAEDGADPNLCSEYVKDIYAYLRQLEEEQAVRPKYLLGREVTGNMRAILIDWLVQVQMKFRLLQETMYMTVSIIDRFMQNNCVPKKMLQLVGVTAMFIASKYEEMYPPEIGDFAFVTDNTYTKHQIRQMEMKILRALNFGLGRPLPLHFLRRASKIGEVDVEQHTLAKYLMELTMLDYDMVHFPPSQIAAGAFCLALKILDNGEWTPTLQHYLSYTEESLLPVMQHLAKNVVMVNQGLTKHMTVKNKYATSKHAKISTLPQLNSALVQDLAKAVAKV

| IC50 (CDK1/cyclin B) [nM] | melting point [°C] | SMILES | Relative caspase-3/7 activity in Hep3B cell line ([1]; 200 nM) | Relative caspase-3/7 activity in Hep3B cell line ([1]; 400 nM) | Relative caspase-3/7 activity in Hep3B cell line ([1]; 800 nM) | Relative caspase-3/7 activity in Hep3B cell line ([1]; 1600 nM) | Relative caspase-3/7 activity in PLC/PRF/5 cell line ([2]; compound concentration 40 nM) | Relative caspase-3/7 activity in PLC/PRF/5 cell line ([2]; compound concentration 80 nM) | Relative caspase-3/7 activity in PLC/PRF/5 cell line ([2]; compound concentration 160 nM) | Relative caspase-3/7 activity in PLC/PRF/5 cell line ([2]; compound concentration 320 nM) | Relative caspase-3/7 activity in PLC/PRF/5 cell line ([2]; compound concentration 640 nM) | Relative caspase-3/7 activity in PLC/PRF/5 cell line ([2]; compound concentration 1280 nM) | Concentration of maximum activation [3] [nM] | IC50 (HepG2) [nM] | Relative caspase-3/7 activity in Hep3B cell line ([1]; 100 nM) |
| --- | --- | --- | --- | --- | --- | --- | --- | --- | --- | --- | --- | --- | --- | --- | --- |
| 301 | 178 to 180 | COc1ccccc1-c1ccc(CNc2nc(NC3CCC(N)CC3)nc3c2ncn3C2CCCC2)cc1 (stereo not shown) [BP16, N^2-(4-amino-cyclohexyl)-9-cyclopentyl-N^6-(2′-methoxy-biphenyl-4-ylmethyl)-9H-purine-2,6-diamine] | 0.93 | 1.26 | 2.82 | 7.07 | 1.01 | 0.73 | 1.15 | 2.42 | >5.00 | >5.00 | 943 | 937 |  |
| 118 | 184 to 186 | COc1ccccc1-c1ccc(CNc2nc(NC3CCC(N)CC3)nc3c2ncn3C2CCCC2)cn1 (stereo not shown) [BP18, N^2-(4-amino-cyclohexyl)-9-cyclopentyl-N^6-[6-(2-methoxy-phenyl)-pyridin-3-ylmethyl]-9H-purine-2,6-diamine] | 0.89 | 3.19 | 6.05 | 8.59 | 0.97 | 2.40 | >5.00 | >5.00 | >5.00 | >5.00 | 510 | 417 |  |
| 77 | 121 to 122 | NC1CCC(Nc2nc(NCc3ccc(-c4cccc(F)c4)nc3)c3ncn(C4CCCC4)c3n2)CC1 (stereo not shown) [BP19, N^2-(4-amino-cyclohexyl)-9-cyclopentyl-N^6-[6-(3-fluoro-phenyl)-pyridin-3-ylmethyl]-9H-purine-2,6-diamine] | 4.82 | 6.60 | 9.80 | 9.45 | 1.78 | 2.39 | >5.00 | >5.00 | >5.00 | >5.00 | 167 | 111 | 0.90 |
| 47 | 202 to 203 | NC1CCC(Nc2nc(NCc3ccc(-c4ccccc4O)nc3)c3ncn(C4CCCC4)c3n2)CC1 (stereo not shown) [BP20, N^2-(4-amino-cyclohexyl)-9-cyclopentyl-N^6-[6-(2-hydroxy-phenyl)-pyridin-3-ylmethyl]-9H-purine-2,6-diamine] | 5.37 | 8.25 | 9.63 | 9.95 | 3.15 | 2.66 | >5.00 | >5.00 | >5.00 | >5.00 | 150 | 68 | 4.42 |
